Test results: PubChem BioAssay (NCI)
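The compound was tested at five concentrations on cells cultured in 96-well plates, with a 48-hour exposure period. TGI denotes the concentration required for complete inhibition of growth.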

Assays:
Experiment in all cases: inhibition of tumour cell growth, NCI panel, 48 h
NCI-H522 lung = system: NCI-H522 lung
SF-268 CNS = system: SF-268 CNS
SF-295 CNS = system: SF-295 CNS
T-47D breast = system: T-47D breast
NCI-H460 lung = system: NCI-H460 lung
A498 renal = system: A498 renal
NCI-H23 lung = system: NCI-H23 lung
SK-MEL-5 melanoma = system: SK-MEL-5 melanoma
MDA-MB-435 = system: MDA-MB-435
EKVX NSCLC = system: EKVX NSCLC
MDA-N = system: MDA-N
HL-60(TB) leukemia = system: HL-60(TB) leukemia
MCF7 breast = system: MCF7 breast
SW-620 colon = system: SW-620 colon
KM12 colon = system: KM12 colon
U251 CNS = system: U251 CNS
OVCAR-5 ovarian = system: OVCAR-5 ovarian
IGROV1 ovarian = system: IGROV1 ovarian
CAKI-1 renal = system: CAKI-1 renal
SF-539 CNS = system: SF-539 CNS
ACHN renal = system: ACHN renal
RXF 393 renal = system: RXF 393 renal
K-562 leukemia = system: K-562 leukemia
SK-OV-3 ovarian = system: SK-OV-3 ovarian
M14 melanoma = system: M14 melanoma
786-0 renal = system: 786-0 renal
CCRF-CEM leukemia = system: CCRF-CEM leukemia
HCT-116 colon = system: HCT-116 colon
DU-145 prostate = system: DU-145 prostate
SR leukemia = system: SR leukemia
HOP-62 NSCLC = system: HOP-62 NSCLC
OVCAR-4 ovarian = system: OVCAR-4 ovarian
PC-3 prostate = system: PC-3 prostate
OVCAR-3 ovarian = system: OVCAR-3 ovarian
TK-10 renal = system: TK-10 renal
RPMI-8226 leukemia = system: RPMI-8226 leukemia
SK-MEL-2 melanoma = system: SK-MEL-2 melanoma
UO-31 renal = system: UO-31 renal
HCT-15 colon = system: HCT-15 colon
UACC-257 melanoma = system: UACC-257 melanoma
HOP-92 NSCLC = system: HOP-92 NSCLC
HS 578T breast = system: HS 578T breast
HCC-2998 colon = system: HCC-2998 colon
LOX IMVI melanoma = system: LOX IMVI melanoma
MDA-MB-231 breast = system: MDA-MB-231 breast
NCI-H226 lung = system: NCI-H226 lung
OVCAR-8 ovarian = system: OVCAR-8 ovarian
MOLT-4 leukemia = system: MOLT-4 leukemia
NCI/ADR-RES ovarian = system: NCI/ADR-RES ovarian
HT29 colon = system: HT29 colon
SK-MEL-28 melanoma = system: SK-MEL-28 melanoma
SNB-75 CNS = system: SNB-75 CNS
COLO 205 colon = system: COLO 205 colon
UACC-62 melanoma = system: UACC-62 melanoma
A549 NSCLC = system: A549 NSCLC
SNB-19 CNS = system: SNB-19 CNS
MALME-3M melanoma = system: MALME-3M melanoma
SN12C renal = system: SN12C renal

Measured: TGI

CC1=CC(=O)CC(C)(C)C1/C=C/C(C)=C/C=C/C(C)=C/C=C/C=C(C)/C=C/C=C(C)/C=C/C1=C(C)CC(O)CC1(C)C (stereo not drawn)
4.52 µM: SR leukemia
27.1 µM: K-562 leukemia
> 100 µM: SF-268 CNS | SF-295 CNS | T-47D breast | NCI-H460 lung | A498 renal | NCI-H23 lung | SK-MEL-5 melanoma | EKVX NSCLC | MDA-N | HL-60(TB) leukemia | KM12 colon | U251 CNS | OVCAR-5 ovarian | IGROV1 ovarian | CAKI-1 renal | SF-539 CNS | SK-OV-3 ovarian | M14 melanoma | CCRF-CEM leukemia | DU-145 prostate | HOP-62 NSCLC | OVCAR-4 ovarian | PC-3 prostate | TK-10 renal | SK-MEL-2 melanoma | UO-31 renal | UACC-257 melanoma | HS 578T breast | LOX IMVI melanoma | MDA-MB-231 breast | NCI-H226 lung | OVCAR-8 ovarian | NCI/ADR-RES ovarian | HT29 colon | SK-MEL-28 melanoma
37.4 µM: HCT-116 colon
72.5 µM: 786-0 renal
72.1 µM: OVCAR-3 ovarian
70.9 µM: HOP-92 NSCLC
72.7 µM: NCI-H522 lung
1600 nM: MOLT-4 leukemia
84.8 µM: MDA-MB-435
33.2 µM: SW-620 colon
73.4 µM: HCT-15 colon
74.3 µM: ACHN renal
99.1 µM: HCC-2998 colon
45.3 µM: MCF7 breast
52.7 µM: RXF 393 renal
27.9 µM: RPMI-8226 leukemia

CC(C)(C)c1cc2c(O)c(c1)Cc1cc(C(C)(C)C)cc(c1O)Cc1cc(C(C)(C)C)cc(c1O)Cc1cc(C(C)(C)C)cc(c1O)Cc1cc(C(C)(C)C)cc(c1O)Cc1cc(C(C)(C)C)cc(c1O)Cc1cc(C(C)(C)C)cc(c1O)Cc1cc(C(C)(C)C)cc(c1O)C2
> 50000 nM: MOLT-4 leukemia
> 50 µM: NCI-H522 lung | SF-268 CNS | SF-295 CNS | T-47D breast | SNB-75 CNS | NCI-H460 lung | A498 renal | COLO 205 colon | UACC-62 melanoma | NCI-H23 lung | SK-MEL-5 melanoma | MDA-MB-435 | EKVX NSCLC | MDA-N | HL-60(TB) leukemia | MCF7 breast | SW-620 colon | KM12 colon | U251 CNS | A549 NSCLC | OVCAR-5 ovarian | SNB-19 CNS | IGROV1 ovarian | CAKI-1 renal | SF-539 CNS | ACHN renal | RXF 393 renal | K-562 leukemia | SK-OV-3 ovarian | M14 melanoma | 786-0 renal | CCRF-CEM leukemia | HCT-116 colon | DU-145 prostate | SR leukemia | HOP-62 NSCLC | OVCAR-4 ovarian | MALME-3M melanoma | PC-3 prostate | OVCAR-3 ovarian | TK-10 renal | RPMI-8226 leukemia | SK-MEL-2 melanoma | UO-31 renal | HCT-15 colon | UACC-257 melanoma | HOP-92 NSCLC | HS 578T breast | HCC-2998 colon | MDA-MB-231 breast | NCI-H226 lung | OVCAR-8 ovarian | NCI/ADR-RES ovarian | HT29 colon | SN12C renal | SK-MEL-28 melanoma
